Test results as given in patent US20250170090A1, “METHOD FOR PREVENTING OR TREATING DISEASE OR DISORDER ASSOCIATED WITH ANTINEOPLASTIC AGENT” (ONQUALITY PHARMACEUTICALS CHINA LTD., priority 2022, published 2025).
Where two headings read alike, the source gives them in different places.

Columns and labels:
[1] = system: hand-foot syndrome induced by anti-tumor agents; assay: Prevention of hand-foot syndrome induced by anti-tumor agents in rats, NO-NSAID ointment on hind paws (Table 2-2); assay type: in vivo, SD rats; details: Rattus norvegicus, topical, read-out: Control rate; for responders at 0.5 %: ointment 0.50% wt; for responders at 1 %: ointment 1% wt; for responders at 2.5 %: ointment 2.50% wt; for responders at 5 %: ointment 5% wt
Text: A rat animal model was constructed, and the anti-tumor agents shown in Table 2-2 were respectively administered to 8-week-old female SD rats by daily oral gavage. […] Therefore, rats serve as an excellent animal model for simulating side effects (such as hand-foot syndrome) caused by anti-tumor agents.
After the rats (about 200 g) were fed and adapted for one week, they were divided into a NO-NSAID group and a control group, with 10 rats in each group, and a gavage administration test was conducted. The various anti-tumor agents were dissolve in a mixed solution of Cremophor EL:ethanol=1:1. The anti-tumor agent solution were diluted with PBS to the required concentration (about 3 times with PBS solution) before gavage administration. After gavage, an ointment containing NO-NSAID was applied to the hind paws of the rats, while the control group was applied with a blank ointment. After application, the rats were placed in a fixed cylinder for 4 hours. After 4 hours, the rats were released and the residual ointment was wiped off with clean water, then the rats were returned to the cage. The gavage frequency of inhibitors was shown in Table 2-2, and NO-NSAID was only applied once a day. The gavage and application operations were repeated daily until the end of the experiment.
Table 2-2 lists the animal experimental combinations of various anti-tumor agents and NO-NSAID ointments, as well as the corresponding experimental results (wherein the value in the control rate column=the hand-foot syndrome incidence rate in the blank group−the hand-foot syndrome incidence rate in the treatment group).

HUVEC cells = assay: CCK-8 cell viability: alleviation of proliferative toxicity of anti-tumor agents on HUVEC cells (Tables 7-1, 7-2); assay type: cell-based; details: for activation at 100 µM: Homo sapiens, 24 h, percentage increase in viable cells vs anti-tumor agent alone, read-out: Response rate % (average)
Protocol: The cultured HUVEC cells were digested the suspended, counted, and seed into a 96-well plate with 5,000-10,000 cells per well. The wells are divided into the following groups: blank control group, anti-tumor agent group, anti-tumor agent+NO-NSAID group, anti-tumor agent solvent group, NO-NSAID control group. Wherein each well of each group contained a basic medium, and the final liquid volume contained in each well was about 100 μL. The grouping situation was as follows: • 1) Blank control group: no solution was added except normally replacing the medium; • 2) Anti-tumor agent group: added the anti-tumor agent solution (the final concentration was shown in Table 7-1 and Table 7-2, the solvent of the anti-tumor agent solution was DMSO); • 3) Anti-tumor agent+NO-NSAID group: added the anti-tumor agent solution and the NO-NSAID solution (the final concentrations of anti-tumor agent and NO-NSAID were shown in Table 7-1 and Table 7-2, and according to the solubility of NO-NSAID, the solvent of NO-NSAID solution was selected as ethanol or sterile water, and minor volume differences in each group were adjusted by added the corresponding solvent); • 4) Anti-tumor agent solvent group: an equal volume of DMSO as contained in the corresponding anti-tumor agent solution in Group 2) was added; • 5) NO-NSAID control group: the same volume and type of solvent (for example, ethanol or sterile water) corresponding to the NO-NSAID contained in group 3) was added.
The anti-tumor agent solvent group was not involved in data processing and was only used as a reference for evaluating experimental system error. The NO-NSAID solvent control group was used for data correction to eliminate the influence of the solvent on the results.
After culturing for 24-48 hours, the Cell Counting Kit-8 (CCK-8) detection kit (C0037, Shanghai Beyotime Biotechnology Co., Ltd., Beyotime Biotechnology) was used to determine the cell viability. This allows for the calculation of the proliferative toxicity of anti-tumor agent on cell and the mitigating effect of NO-NSAID on proliferative toxicity. The results were statistically analyzed and plotted using GraphPad Prism 6.0 software and t test.

[2] = 120 h, Sorafenib 80 mg/kg once a day, Days 5
[3] = 432 h, Cabozantinib 50 mg/kg once a day, Days 18
[4] = 432 h, Lenvatinib 100 mg/kg twice a day, Days 18
[5] = 432 h, Nintedanib 110 mg/kg once a day, Days 18
[6] = 432 h, Regorafenib 90 mg/kg once a day, Days 18
[7] = Afatinib (10 μM), NO-NSAID 100 μM
[8] = Cabozantinib (5 μM), NO-NSAID 100 μM
[9] = Dabrafenib (10 μM), NO-NSAID 100 μM
[10] = Everolimus (5 μM), NO-NSAID 100 μM
[11] = Infigratinib (15 μM), NO-NSAID 100 μM
[12] = Lapatinib (5 μM), NO-NSAID 100 μM
[13] = Lenvatinib (10 μM), NO-NSAID 100 μM
[14] = Olmutinib (10 μM), NO-NSAID 100 μM
[15] = Regorafenib (5 μM), NO-NSAID 100 μM
[16] = Selumetinib (5 μM), NO-NSAID 100 μM
[17] = Sorafenib (5 μM), NO-NSAID 100 μM
[18] = Sunitinib (5 μM), NO-NSAID 100 μM

CC(C(=O)OCCCO[N+](=O)[O-])c1ccc(-c2ccccc2)c(F)c1 (stereo not drawn) [Compound A1]
responders at 0.5 % [1, 2]: 42.9%
responders at 1 % [1, 2]: 42.9%
responders at 2.5 % [1, 2]: 60%
responders at 5 % [1, 2]: 83.3%
responders at 2.5 % ([1]; 360 h, Apatinib 105 mg/kg once a day, Days 15): 57.1%
responders at 2.5 % ([1]; 360 h, Encorafenib 80 mg/kg once a day, Days 15): 60%
responders at 2.5 % ([1]; 360 h, Lapatinib 120 mg/kg twice a day, Days 15): 33.3%
responders at 2.5 % ([1]; 360 h, Sunitinib 120 mg/kg once a day, Days 15): 57.1%
responders at 2.5 % ([1]; 384 h, Fruquintinib 40 mg/kg once a day, Days 16): 57.1%
responders at 2.5 % ([1]; 432 h, Anlotinib 20 mg/kg once a day, Days 18): 33.3%
responders at 2.5 % ([1]; 432 h, Axitinib 50 mg/kg once a day, Days 18): 60%
responders at 1 % [1, 3]: 40%
responders at 2.5 % [1, 3]: 33.3%
responders at 5 % [1, 3]: 66.7%
responders at 1 % [1, 4]: 28.6%
responders at 2.5 % [1, 4]: 57.1%
responders at 5 % [1, 4]: 57.1%
responders at 1 % [1, 5]: 33.3%
responders at 2.5 % [1, 5]: 66.7%
responders at 5 % [1, 5]: 66.7%
responders at 0.5 % [1, 6]: 33.3%
responders at 1 % [1, 6]: 50%
responders at 2.5 % [1, 6]: 42.9%
responders at 5 % [1, 6]: 80%
responders at 2.5 % ([1]; 480 h, Erdafitinib 45 mg/kg once a day, Days 20): 42.9%
responders at 2.5 % ([1]; 480 h, Olmutinib 100 mg/kg once a day, Days 20): 50%
NO-NSAID response rate % (average) (HUVEC cells; Afatinib (10 μM), NO-NSAID 0.1 μM): 13%
NO-NSAID response rate % (average) (HUVEC cells; Afatinib (10 μM), NO-NSAID 1 μM): 20%
NO-NSAID response rate % (average) (HUVEC cells; [7]): 50%
NO-NSAID response rate % (average) (HUVEC cells; Afatinib (10 μM), NO-NSAID 500 μM): 25%
NO-NSAID response rate % (average) (HUVEC cells; Cabozantinib (5 μM), NO-NSAID 0.1 μM): 10%
NO-NSAID response rate % (average) (HUVEC cells; Cabozantinib (5 μM), NO-NSAID 1 μM): 10%
NO-NSAID response rate % (average) (HUVEC cells; [8]): 4%
NO-NSAID response rate % (average) (HUVEC cells; Cabozantinib (5 μM), NO-NSAID 500 μM): 15%
NO-NSAID response rate % (average) (HUVEC cells; Dabrafenib (10 μM), NO-NSAID 0.1 μM): 22%
NO-NSAID response rate % (average) (HUVEC cells; Dabrafenib (10 μM), NO-NSAID 1 μM): 48%
NO-NSAID response rate % (average) (HUVEC cells; [9]): 53%
NO-NSAID response rate % (average) (HUVEC cells; Dabrafenib (10 μM), NO-NSAID 500 μM): 37%
NO-NSAID response rate % (average) (HUVEC cells; Everolimus (5 μM), NO-NSAID 0.1 μM): 4%
NO-NSAID response rate % (average) (HUVEC cells; Everolimus (5 μM), NO-NSAID 1 μM): −2%
NO-NSAID response rate % (average) (HUVEC cells; [10]): 62%
NO-NSAID response rate % (average) (HUVEC cells; Everolimus (5 μM), NO-NSAID 500 μM): 20%
activation at 100 µM (HUVEC cells; [7]): 50%
activation at 100 µM (HUVEC cells; Anlotinib (5 μM), NO-NSAID 100 μM): 16%
activation at 100 µM (HUVEC cells; Apatinib (10 μM), NO-NSAID 100 μM): 43%
activation at 100 µM (HUVEC cells; Axitinib (10 μM), NO-NSAID 100 μM): 65%
activation at 100 µM (HUVEC cells; [8]): 4%
activation at 100 µM (HUVEC cells; [9]): 53%
activation at 100 µM (HUVEC cells; Dacomitinib (5 μM), NO-NSAID 100 μM): 59%
activation at 100 µM (HUVEC cells; Encorafenib (5 μM), NO-NSAID 100 μM): 65%
activation at 100 µM (HUVEC cells; Erdafitinib (10 μM), NO-NSAID 100 μM): 51%
activation at 100 µM (HUVEC cells; [10]): 62%
activation at 100 µM (HUVEC cells; Famitinib (5 μM), NO-NSAID 100 μM): 70%
activation at 100 µM (HUVEC cells; Fruquintinib (10 μM), NO-NSAID 100 μM): 23%
activation at 100 µM (HUVEC cells; Gefitinib (10 μM), NO-NSAID 100 μM): 30%
activation at 100 µM (HUVEC cells; [11]): 80%
activation at 100 µM (HUVEC cells; [12]): 27%
activation at 100 µM (HUVEC cells; [13]): 28%
activation at 100 µM (HUVEC cells; [14]): 37%
activation at 100 µM (HUVEC cells; [15]): 64%
activation at 100 µM (HUVEC cells; [16]): 51%
activation at 100 µM (HUVEC cells; [17]): 51%
activation at 100 µM (HUVEC cells; [18]): 11%
activation at 100 µM (HUVEC cells; Vemurafenib (5 μM), NO-NSAID 100 μM): 45%
NO-NSAID response rate % (average) (HUVEC cells; Infigratinib (15 μM), NO-NSAID 0.1 μM): 23%
NO-NSAID response rate % (average) (HUVEC cells; Infigratinib (15 μM), NO-NSAID 1 μM): 14%
NO-NSAID response rate % (average) (HUVEC cells; [11]): 80%
NO-NSAID response rate % (average) (HUVEC cells; Infigratinib (15 μM), NO-NSAID 500 μM): 25%
NO-NSAID response rate % (average) (HUVEC cells; Lapatinib (5 μM), NO-NSAID 0.1 μM): 27%
NO-NSAID response rate % (average) (HUVEC cells; Lapatinib (5 μM), NO-NSAID 1 μM): 23%
NO-NSAID response rate % (average) (HUVEC cells; [12]): 27%
NO-NSAID response rate % (average) (HUVEC cells; Lapatinib (5 μM), NO-NSAID 500 μM): 24%
NO-NSAID response rate % (average) (HUVEC cells; Lenvatinib (10 μM), NO-NSAID 0.1 μM): 21%
NO-NSAID response rate % (average) (HUVEC cells; Lenvatinib (10 μM), NO-NSAID 1 μM): 13%
NO-NSAID response rate % (average) (HUVEC cells; [13]): 28%
NO-NSAID response rate % (average) (HUVEC cells; Lenvatinib (10 μM), NO-NSAID 500 μM): 10%
NO-NSAID response rate % (average) (HUVEC cells; Olmutinib (10 μM), NO-NSAID 0.1 μM): 25%
NO-NSAID response rate % (average) (HUVEC cells; Olmutinib (10 μM), NO-NSAID 1 μM): 20%
NO-NSAID response rate % (average) (HUVEC cells; [14]): 37%
NO-NSAID response rate % (average) (HUVEC cells; Olmutinib (10 μM), NO-NSAID 500 μM): 31%
NO-NSAID response rate % (average) (HUVEC cells; Regorafenib (5 μM), NO-NSAID 0.1 μM): 21%
NO-NSAID response rate % (average) (HUVEC cells; Regorafenib (5 μM), NO-NSAID 1 μM): 27%
NO-NSAID response rate % (average) (HUVEC cells; [15]): 64%
NO-NSAID response rate % (average) (HUVEC cells; Regorafenib (5 μM), NO-NSAID 500 μM): 42%
NO-NSAID response rate % (average) (HUVEC cells; Selumetinib (5 μM), NO-NSAID 0.1 μM): 36%
NO-NSAID response rate % (average) (HUVEC cells; Selumetinib (5 μM), NO-NSAID 1 μM): 28%
NO-NSAID response rate % (average) (HUVEC cells; [16]): 51%
NO-NSAID response rate % (average) (HUVEC cells; Selumetinib (5 μM), NO-NSAID 500 μM): 25%
NO-NSAID response rate % (average) (HUVEC cells; Sorafenib (5 μM), NO-NSAID 0.1 μM): 1%
NO-NSAID response rate % (average) (HUVEC cells; Sorafenib (5 μM), NO-NSAID 1 μM): 14%
NO-NSAID response rate % (average) (HUVEC cells; [17]): 51%
NO-NSAID response rate % (average) (HUVEC cells; Sorafenib (5 μM), NO-NSAID 500 μM): 8%
NO-NSAID response rate % (average) (HUVEC cells; Sunitinib (5 μM), NO-NSAID 0.1 μM): 19%
NO-NSAID response rate % (average) (HUVEC cells; Sunitinib (5 μM), NO-NSAID 1 μM): 5%
NO-NSAID response rate % (average) (HUVEC cells; [18]): 11%
NO-NSAID response rate % (average) (HUVEC cells; Sunitinib (5 μM), NO-NSAID 500 μM): 29%
